Laboratory results reported in patent US5656608A (priority 1995, dated 1997).
Read-outs that look alike come from different tables or passages of the source.

Assays:
[1] = system: AST (Aspartate Aminotransferase); conditions: glycine diet; LPS 10 mg/kg; survivors; untreated fed 2000 IU/L
Procedure: (§1) The rats were then injected lipopolysaccharide (LPS; 10, 20 and 30 mg/kg resp.) from the tail vein and mortality was assessed 24 hours after the injection.
b) From the survivors, the liver enzyme AST (Aspartate Aminotransferase; a transaminase) was measured as indication for liver damage.

[2] = system: infection; conditions: in vivo
[3] = body weight and ethanol intake during ethanol treatment; type: in vivo, Male Wistar rats; conditions: liquid glycine diets; 4 weeks of ethanol
Procedure: (§2) In Male Wistar rats, weighing 300 to 320 mg each, intragastric cannulas were inserted as described by Tsukamoto and French. Cannulas were tunnelled subcutaneously to the dorsal aspect of the neck and attached to infusion pumps by means of a spring-tether device and swivel allowing complete mobility of rats in metabolic cages.
(§3) A liquid diet described by Thompson and Reitz was used.

[4] = system: partial hepatic ischemia/reperfusion and LPS injection in rats; conditions: glycine diet 3 days; 90 min partial hepatic ischemia/reperfusion; LPS 5 mg/kg; 24 hours; p<0.05; control 0 of 4
Procedure: A sublethal dose of LPS (5 mg/kg) was injected via tail vein 6 hr after reperfusion.

[5] = system: liver graft; conditions: added to liver graft storage solution; dogs; cited from earlier work
[6] = in vivo; conditions: rat, iv, 10 mg/kg
[7] = system: lipopolysaccharide (LPS) endotoxic shock in rats; conditions: for mortality: 5% glycine diet
Procedure: as §1

[8] = system: tumour necrosis factor (TNF)
[9] = system: Kupffer cells
[10] = system: variety of cells; conditions: anoxia, potassium cyanide and t-butyl hydroxide; cited from earlier work
[11] = system: suspended hepatocytes; conditions: injury by calcium ionophores or oxidative stress; cited from earlier work
[12] = system: liver (steatosis, inflammation and necrosis)
Description: Rats underwent liver biopsy and autopsy after 2 and 4 weeks of treatment with ethanol. Livers were formalin-fixed, embedded in paraffin and stained with hematoxylin and eosin to assess steatosis, inflammation and necrosis. Liver pathology was scored as described by Nanji et al. as follows: steatosis (the percent liver cells containing fat): <25%=1+; <50%=2+; <75%=3+, >75%=4+; inflammation and necrosis: 1 focus per low-power field=1+; 2 or more=2+.

[13] = system: rat liver (previously anoxic pericentral regions); test: cells; conditions: for IC50: Rattus norvegicus
Procedure: Animals used: Male Sprague-Dawley rats weighing between 180-210 g and fed a Purina diet. Rats were fasted for 24 h prior to surgery.
Liver Perfusion: Rats were anesthetized with pentobarbital sodium (50 mg) before surgery and livers were removed surgically and perfused via a cannula inserted into the portal vein with Krebs-Henseleit bicarbonate buffer (pH 7.4, 37° C.) saturated with an oxygen-carbon dioxide (95:5) mixture in a non-recirculating system (Krebs-Henseleit, 1932). After surgery, livers were perfused at flow rates around 1 ml/g/min for 75 minutes (low-flow). Subsequently, livers were perfused at normal flow rates (4 ml/g/min) for 40 minutes (reflow).
Lactate dehydrogenase (LDH): LDH activity in the perfusate was determined using standard enzymatic techniques (Bergmeyer, 1988). […] After cooling, samples were centrifuged at 1000×g for 10 minutes and the absorbance of the supernatant was determined at 535 nm. Rates of release of LDH expressed per gram wet weight of liver per hour.
Trypan Blue Distribution Time and Histological Procedures: To assess microcirculation and cell death in the liver, trypan blue was infused into the liver at the end of all experiments at final concentrations of 0.2 mM (Belinsky et al., 1984). The time for the liver surface to turn evenly dark blue was recorded. Excess dye was removed by perfusion with Krebs-Henseleit buffer for an additional 10 minutes. Subsequently, livers were perfused with 1% paraformaldehyde for 10 minutes and fixed tissue was embedded in paraffin and processed for light microscopy. Sections were stained only with eosin, a cytoplasmic stain, so that trypan blue could be identified readily in the nuclei of damaged cells.
All nuclei of parenchymal cells in a zone radiating five cells from either periportal or pericentral regions were identified as trypan blue-positive or negative. The percentage of staining was calculated from the number of stained nuclei divided by the total number of cells in any given region.
Statistical Analysis: Student's-t-test or ANOVA was used where appropriate. Differences were considered significant when the p-value was less than 0.05.

[14] = system: ethanol concentration in breath, feces, urine, blood and stomach; conditions: for ethanol concentration, Feces / ethanol concentration, Stomach: * p < 0.05
Procedure: as §2, §3
Concentration of ethanol in urine, which are representative of blood alcohol levels were measured daily. Rats were housed in metabolic cages that separated urine from feces, and urine was collected over 24 hours in bottles containing mineral oil to prevent evaporation.
ANOVA or Student's t-test was used for determination of statistical significance as appropriate. […] A p value less than 0.05 was selected before the study as the level of significance.

[15] = system: Asparate Aminotransferase (AST); conditions: for serum AST: 4 weeks, liquid control diet 183 IU/L
Procedure: as §2, §3
Blood was collected via the tail vein once a week and centrifuged. Serum was stored at -20° C. in a microtube until assayed for AST by standard enzymatic procedures.

[16] = system: liver and lung; conditions: glycine diet; 24 hr after LPS 10 mg/kg
Procedure: d) Liver and lung specimens for histology were taken 24 hr after injection of LPS (10 mg/kg) and hematoxylin-eosin stained.

[17] = liquid 2% and 5% glycine diet, 4 weeks
[18] = Table 1, Mean ± S.E.M., ethanol with or without 5% glycine
[19] = Table 1, Mean ± S.E.M., ethanol with or without 5% glycine, ** p < 0.01
[20] = Table 1, Mean ± S.E.M., ethanol with or without 5% glycine, *** p < 0.001

## NCC(=O)O [glycine]
[1]
  AST level: markedly and significantly reduced
[2]
  protective effect compared with fish oil: more profound and acute than that obtainable by fish oil treatment
[3]
  body weight: no significant differences in body weight
[4]
  survival: 5 rats out of 6
[5]
  survival: did not improve survival
[6]
  concentration at 6 h: 1730 ± 515 µM
[7]; 5% glycine diet 3 days, LPS 10 mg/kg, control 50% mortality, p<0.05
  protection against LPS mortality: 100%
[7]; LPS 20 mg/kg, control 70%
  mortality: 30%
[7]; LPS 30 mg/kg, control 100%
  mortality: 90%
[8]; 5% glycine diet, LPS 10 mg/kg, control 60 min
  time of serum TNF peak after injection: 150 min
[8]; 5% glycine diet, LPS 10 mg/kg, p<0.05, control over 6000 pg/ml
  suppression of serum TNF increase: at least 50%
[8]; following endotoxic shock
  release of TNF into the systemic circulation: significantly reduces the release of TNF
[9]
  ischemic/endotoxic liver and organ damage, activation of Kupffer cells: prevents or at least substantially suppresses
[10]
  cell damage: reduce cell damage
[11]
  protection of suspended hepatocytes: not found to protect
[12]; [17]
  fatty changes (steatosis): attenuated
  necrosis and inflammation: almost totally absent
[12]; liquid glycine diets
  inflammation (statistics): only a tendency for reduction
  reductions of steatosis and necrosis (statistics): statistically significantly
[12]; rat
  liver injury due to chronic intragastric ethanol exposure: prevents liver injury
[13]
  LDH release and cell death during reperfusion (in words): minimized LDH release and cell death almost completely
  MDA production during reperfusion: tends to decrease with glycine, changes are not statistically significant
  oxygen uptake (indicator of mitochondrial function): not altered
[13]; 2 mM glycine, 40 minutes of reperfusion, control about 460 seconds
  trypan blue distribution time: about 250 seconds
[13]; 5 and 40 minutes after reflow
  trypan blue distribution time (in words): reduced significantly at 5 and 40 minutes after reflow
[13]; 40 vs 5 minutes after reflow
  change of trypan blue distribution time at later vs earlier time point: about 2 fold
[13]; 5 minutes after reperfusion, control 225 seconds, p<0.05, n=5
  trypan blue distribution time: about 190 seconds
[13]; 40 min, read-out: half maximal decrease of trypan blue distribution time, 40 minutes of reflow
  IC50: 180 µM
[13]; read-out: half-maximal decrease of LDH release, rat liver, glycine infused from 10 min before reflow
  IC50: 180 µM
[13]; read-out: half-maximal effect (trypan blue distribution time; cytoprotective effect), reflow liver perfusion
  IC50: 180 µM
[13]; glycine 0.06-2 mM
  enzyme (LDH) release, dose dependence (in words): minimizes enzyme release in a dose-dependent manner
[13]; physiological concentrations of 240-300 mmol (in humans)
  protection in the rat liver reperfusion model: more than half maximal protection
[14]; [18]
  ethanol concentration, Feces: 15 ± 11
  ethanol concentration, Stomach: 26
[14]; [19]
  ethanol concentration, Blood Tail Vein: 21 ± 13
  ethanol concentration, Urine A.M.: 26 ± 25
[14]; [20]
  ethanol concentration, Blood Portal: 10 ± 7
  ethanol concentration, Breath: 5 ± 4
  ethanol concentration, Urine 24 hr: 24 ± 8
[14]; glycine-treated rats
  alcohol in stomach contents (in words): reduced dramatically
[14]; liquid 2% glycine diet
  reduction of the mean urine alcohol concentration: 50%
[14]; liquid 5% glycine diet
  reduction of the mean urine alcohol concentration: 70%
[14]; liquid glycine diets
  daily urine alcohol concentration (in words): very low but were still cyclic
[14]; rat, in vivo
  transfer of alcohol from the stomach into the blood: prevents the transfer of alcohol from the stomach into the blood
[15]; both glycine treatments, every point during the study
  increase of serum AST (in words): attenuated significantly
[15]; liquid 2% glycine diet
  serum AST: 66 IU/L
[15]; liquid 5% glycine diet
  serum AST: 100 IU/L
[16]
  liver necrosis (histology): less necrosis in the liver
  pulmonary edema (histology): less pulmonary edema

## CCO [ethanol, reference compound]
[14]; [18]
  ethanol concentration, Feces: 82 ± 21
  ethanol concentration, Stomach: 761 ± 625
[14]; [19]
  ethanol concentration, Blood Tail Vein: 199 ± 45
[14]; [20]
  ethanol concentration, Blood Portal: 357 ± 65
  ethanol concentration, Breath: 108 ± 12
[14]; rat, in vivo, po
  ethanol concentration, Urine A.M.: 184 ± 12
  urine alcohol level, upper end of cyclic fluctuation: greater than 300 mg/dl
